Earlier results in paper PMC7182039 (Journal of medicinal chemistry, 2020).

System: schistosomes
Conditions: cited from earlier work

Compound: c1cc([C@H]2CC[C@]3(CC2)OO[C@]2(O3)C3CC4CC(C3)CC2C4)ccc1OCCN1CCOCC1 [Compound 1]
- antischistosomal activity: no antischistosomal activity
